# Several values for one entry are separate records, joined by “and”; a condition that tells them apart may be missing. Equal entries are not always repeated. Structures can show the parent of a compound that is named as a salt.
# Assay: Example 2 plasma concentrations and pharmacokinetics after topical ocular, subcutaneous, intravitreal administration
# Assay type: in vivo, male New Zealand White rabbits
# Protocol: To measure the concentration of Compound 1 in plasma and ocular tissues following topical ocular, subcutaneous, and intravitreal administration, New Zealand White rabbits were administered Compound 1, and plasma and ocular samples were collected at pre-determined time points. Compound 1 formulations were prepared fresh on each day of dosing.
# Ocular tissue samples from both eyes of each animal were collected and weights were recorded. Plasma and ocular tissue sample concentrations of Compound 1 were determined by LC-MS/MS.
# New Zealand White rabbits weighing 2.5 to 3.5 kg were used on this study. Rabbits were housed one per cage. Animals were not fasted and only healthy animals with no ocular illness were used. Two rabbits per group were sacrificed at each of four ocular tissue sampling time points for a total of eight rabbits per group.
# Animals were anesthetized for ocular (topical) and intravitreal dosing following the 12IA7 IACUC protocol. Each rabbit received a bolus dose of test formulation either via topical ocular administration 3 times daily on Days 1 and 2 (at 0, 6, and 12 hours), and once on Day 3 (at 0 hours) into both eyes; via intravitreal administration into both eyes once on Day 1 (at 0 hours); or via subcutaneous administration 2 times daily on Days 1 and 2 (at 0 and 8 hours) and once daily on Day 3 (at 0 hours). Doses were given within an approximately 1 hour window each day where applicable.
# Each blood sample was collected on Day 3 post dose at pre-determined time points from the rabbits via an ear vessel and placed into chilled polypropylene tubes containing sodium heparin as an anticoagulant. Samples were spun by centrifuge at 4° C. and 3,000× g for 5 minutes. Samples were maintained chilled throughout processing. Each plasma sample was placed on dry ice and stored in a freezer at −60° C. to −80° C. pending bioanalysis.
# An LC-MS/MS method was developed for the determination of Compound 1 in rabbit aqueous tissues (plasma, aqueous and vitreous humor) and solid ocular tissue samples. A pre-study standard curve was analyzed to determine the specificity, range, and lower limit of quantitation of the method. Plasma and tissue homogenate study samples were extracted and analyzed. All the samples were treated identically to the standards.
# One eight-point standard curve was used in each analytical batch. To be accepted, each batch must have had at least five of eight standards with accuracy within ±20% of nominal, except at the lower limit of quantification (LLOQ), where ±25% was acceptable.
# Pharmacokinetic parameters were calculated from the time course of the plasma concentration. The maximum plasma concentration (Cmax) and time to the maximum plasma drug concentration (Tmax) were the observed values for each concentration-time profiles. The area under the plasma drug concentration-time curve (AUClast, with last being from time 0 to the last quantifiable point) was calculated using the trapezoidal formula. The mean residence time MRTlast was calculated as a ratio of AUMClast (area under the first movement curve) to AUClast.
# [1] = Group 1: topical ocular 1.2 mg/eye (~0.7 mg/kg/dose), 15% HPβCD + 1% dextrose solution
# [2] = Group 1: topical ocular 1.2 mg/eye (~0.7 mg/kg/dose), 15% HPβCD + 1% dextrose, 0.50 hr
# [3] = Group 1: topical ocular 1.2 mg/eye (~0.7 mg/kg/dose), 15% HPβCD + 1% dextrose, 1.0 hr
# [4] = Group 1: topical ocular 1.2 mg/eye (~0.7 mg/kg/dose), 15% HPβCD + 1% dextrose, 2.0 hr
# [5] = Group 1: topical ocular 1.2 mg/eye (~0.7 mg/kg/dose), 15% HPβCD + 1% dextrose, 4.0 hr
# [6] = Group 2: subcutaneous 5 mg/kg/dose, 15% HPβCD + 1% dextrose solution
# [7] = Group 2: subcutaneous 5 mg/kg/dose, 15% HPβCD + 1% dextrose solution, 0.25 hr
# [8] = Group 2: subcutaneous 5 mg/kg/dose, 15% HPβCD + 1% dextrose solution, 0.50 hr
# [9] = Group 2: subcutaneous 5 mg/kg/dose, 15% HPβCD + 1% dextrose solution, 1.0 hr
# [10] = Group 2: subcutaneous 5 mg/kg/dose, 15% HPβCD + 1% dextrose solution, 2.0 hr
# [11] = Group 2: subcutaneous 5 mg/kg/dose, 15% HPβCD + 1% dextrose solution, 4.0 hr
# [12] = Group 2: subcutaneous solution, normalized by nominal dose 5 mg/kg
# [13] = Group 4: intravitreal 2.5 mg/eye (~1.55 mg/kg), 10% HPβCD + 2% dextrose solution
# [14] = Group 4: intravitreal 2.5 mg/eye (~1.55 mg/kg), 10% HPβCD + 2% dextrose solution, 1.0 hr
# [15] = Group 4: intravitreal 2.5 mg/eye (~1.55 mg/kg), 10% HPβCD + 2% dextrose solution, 3.0 hr
# [16] = Group 4: intravitreal 2.5 mg/eye (~1.55 mg/kg), 10% HPβCD + 2% dextrose solution, 6.0 hr
# [17] = Group 4: intravitreal 2.5 mg/eye (~1.55 mg/kg), 10% HPβCD + 2% dextrose solution, 24.0 hr
# [18] = Group 4: intravitreal 2.5 mg/eye (~1.55 mg/kg), 10% HPβCD + 2% dextrose solution, 48.0 hr
# [19] = Group 4: intravitreal 2.5 mg/eye (~1.55 mg/kg), 10% HPβCD + 2% dextrose solution, 72.0 hr
# [20] = Group 4: intravitreal solution, normalized by nominal dose 1.55 mg/kg
structure (smiles),measurement,setting,value
COC(=O)N[C@@H](Cc1ccccc1)C(=O)N[C@@H](Cc1ccc(NS(=O)(=O)O)cc1)c1csc(-c2cccs2)n1 [Compound 1 sodium salt],plasma AUClast (± SE),[1],11.8 ± 5.70 ng·h/mL and 11.8 ng·h/mL
same,plasma Cmax (± SE),[1],7.48 ± 5.53 ng/mL and 7.48 ng/mL
same,plasma MRTlast,[1],2.98 h
same,plasma tmax,[1],4.00 h
same,plasma tmax,"Group 1: topical ocular 1.2 mg/eye (~0.7 mg/kg/dose), 15% HPβCD + 1% dextrose solution, listed as Compound 1 (sodium salt)",4 h
same,plasma Average conc.,[2],3.03 ng/mL
same,"plasma Conc., individual rabbit",[2],3.84 ng/mL and 2.21 ng/mL
same,plasma Average conc.,[3],1.46 ng/mL
same,"plasma Conc., individual rabbit",[3],1.28 ng/mL and 1.63 ng/mL
same,plasma Average conc.,[4],1.14 ng/mL
same,"plasma Conc., individual rabbit",[4],2.04 ng/mL and 0.241 ng/mL
same,plasma Average conc.,[5],7.48 ng/mL
same,"plasma Conc., individual rabbit",[5],13.0 ng/mL and 1.95 ng/mL
same,"plasma AUClast, dose normalized","Group 1: topical ocular, normalized by nominal dose 0.7 mg/kg",16.8 ± 8.15 kg·ng·h/mL/mg and 16.8 kg·ng·h/mL/mg
same,plasma AUClast (± SE),[6],1555 ± 195 ng·h/mL and 1555 ng·h/mL
same,plasma AUC∞,[6],1560 ng·h/mL
same,plasma Cmax (± SE),[6],1525 ± 115 ng/mL and 1525 ng/mL
same,plasma MRTlast,[6],0.87 h
same,plasma t1/2,[6],0.47 h
same,plasma tmax,[6],0.25 h
same,plasma Average conc.,[7],1525 ng/mL
same,"plasma Conc., individual rabbit",[7],1640 ng/mL and 1410 ng/mL
same,plasma Average conc.,[8],1097 ng/mL
same,"plasma Conc., individual rabbit",[8],883 ng/mL and 1310 ng/mL
same,plasma Average conc.,[9],646 ng/mL
same,"plasma Conc., individual rabbit",[9],664 ng/mL and 628 ng/mL
same,plasma Average conc.,[10],180 ng/mL
same,"plasma Conc., individual rabbit",[10],55.5 ng/mL and 305 ng/mL
same,plasma Average conc.,[11],7.76 ng/mL
same,"plasma Conc., individual rabbit",[11],7.98 ng/mL and 7.53 ng/mL
same,"plasma AUClast, dose normalized",[12],311 ± 38.9 kg·ng·h/mL/mg and 311 kg·ng·h/mL/mg
same,"plasma AUC∞, dose normalized",[12],312 kg·ng·h/mL/mg
same,plasma AUClast (± SE),[13],953 ± 91.1 ng·h/mL and 953 ng·h/mL
same,plasma AUC∞,[13],956 ng·h/mL
same,plasma Cmax (± SE),[13],39.8 ± 2.30 ng/mL and 39.8 ng/mL
same,plasma MRTlast,[13],15.1 h
same,plasma t1/2,[13],8.08 h
same,plasma tmax,[13],3.00 h
same,plasma Average conc.,[14],32.3 ng/mL
same,"plasma Conc., individual rabbit",[14],33.2 ng/mL and 31.3 ng/mL
same,plasma Average conc.,[15],39.8 ng/mL
same,"plasma Conc., individual rabbit",[15],37.5 ng/mL and 42.1 ng/mL
same,plasma Average conc.,[16],36.8 ng/mL
same,"plasma Conc., individual rabbit",[16],44.3 ng/mL and 29.3 ng/mL
same,plasma Average conc.,[17],16.9 ng/mL
same,"plasma Conc., individual rabbit",[17],19.0 ng/mL and 14.7 ng/mL
same,plasma Average conc.,[18],2.58 ng/mL
same,"plasma Conc., individual rabbit",[18],2.70 ng/mL and 2.45 ng/mL
same,plasma Average conc.,[19],0.27 ng/mL
same,"plasma Conc., individual rabbit",[19],0.215 ng/mL and 0.333 ng/mL
same,plasma tmax,"Group 4: intravitreal 2.5 mg/eye (~1.55 mg/kg), 10% HPβCD + 2% dextrose solution, listed as Compound 1 (sodium salt)",3 h
same,"plasma AUClast, dose normalized",[20],615 ± 58.8 kg·ng·h/mL/mg and 615 kg·ng·h/mL/mg
same,"plasma AUC∞, dose normalized",[20],617 kg·ng·h/mL/mg
same,mean plasma AUClast between the two dose formulations,intravitreal administration,comparable
same,"mean plasma Cmax, sodium salt solution compared to free acid suspension",intravitreal administration,approximately 2 fold
same,plasma concentrations vs free acid (FIG. 5),"intravitreal administration, up to twenty-four hours post-administration",slightly higher plasma concentrations as compared to the free acid
same,"mean plasma AUClast, sodium salt solution compared to free acid suspension",subcutaneous administration,approximately 2 fold
same,"mean plasma Cmax, sodium salt solution compared to free acid suspension",subcutaneous administration,approximately 3 fold
same,mean plasma Tmax,"subcutaneous administration, postdose",0.25 h
same,plasma concentrations vs free acid (FIG. 4),"subcutaneous administration, up to one hour post-administration",generally increased plasma concentrations as compared to the free acid
same,plasma concentration (FIG. 3),"topical ocular administration, 4 hour mark",increase in Compound 1 plasma concentration
COC(=O)N[C@@H](Cc1ccccc1)C(=O)N[C@@H](Cc1ccc(NS(=O)(=O)O)cc1)c1csc(-c2cccs2)n1 [Compound 1],"systemic exposure, as measured in plasma",all routes and formulations,confirmed
